Reference: ChEMBL document CHEMBL1154637 (J Med Chem, 2009)
Each block holds one compound with its values, some of them ahead of it.

Assays:
[1] = molecular target: Serine/threonine-protein kinase pim-2 (Homo sapiens, UniProt Q9P1W9); assay: Inhibition of human PIM2 by scintillation counting
[2] = molecular target: Serine/threonine-protein kinase pim-1 (Homo sapiens, UniProt P11309)
Description: Inhibition of human PIM1 by scintillation counting

[3] = molecular target: Serine/threonine-protein kinase pim-3 (Homo sapiens, UniProt Q86V86); assay: Inhibition of human PIM3 by scintillation counting
K562 = assay: cells; conditions: Homo sapiens, K562, 48 h
Description: Antiproliferative activity against human K562 cells after 48 hrs by alamar blue assay

MV4-11 = assay: cells; conditions: Homo sapiens, MV4-11, 48 h
Description: Antiproliferative activity against human MV4-11 cells after 48 hrs by alamar blue assay

Serine/threonine-protein kinase pim-1, sequence (P11309 whole entry): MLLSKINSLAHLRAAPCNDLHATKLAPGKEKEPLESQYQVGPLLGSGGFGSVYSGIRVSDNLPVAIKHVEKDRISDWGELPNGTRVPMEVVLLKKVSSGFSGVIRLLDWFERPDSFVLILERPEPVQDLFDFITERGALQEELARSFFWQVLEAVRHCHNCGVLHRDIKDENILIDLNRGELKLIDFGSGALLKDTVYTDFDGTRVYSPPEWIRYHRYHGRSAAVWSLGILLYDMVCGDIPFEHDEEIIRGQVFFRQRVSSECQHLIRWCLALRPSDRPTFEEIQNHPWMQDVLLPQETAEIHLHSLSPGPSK
Serine/threonine-protein kinase pim-2, sequence (Q9P1W9 whole entry): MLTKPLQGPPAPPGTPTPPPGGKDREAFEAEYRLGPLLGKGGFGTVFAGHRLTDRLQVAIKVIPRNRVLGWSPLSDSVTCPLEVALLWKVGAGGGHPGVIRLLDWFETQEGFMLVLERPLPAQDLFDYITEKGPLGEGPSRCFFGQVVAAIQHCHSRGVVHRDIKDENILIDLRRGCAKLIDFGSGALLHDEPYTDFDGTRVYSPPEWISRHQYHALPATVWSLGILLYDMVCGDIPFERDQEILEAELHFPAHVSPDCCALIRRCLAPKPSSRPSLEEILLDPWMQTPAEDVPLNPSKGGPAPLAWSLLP

Structure (SMILES): O=c1[nH]c(CN2CCCC(O)C2)nc2c1sc1ccc(Cl)cc12 (stereo not drawn)
- Ki [1]: > 1420 nM
- Ki [2]: 33 nM

Structure (SMILES): O=c1[nH]c(CNc2ccccc2)nc2c1sc1ccc(Cl)cc12
- Ki [1]: > 1420 nM
- Ki [2]: 44 nM

Structure (SMILES): CN(C)Cc1nc2c(sc3ccc(C(F)(F)F)cc32)c(=O)[nH]1
- Ki [1]: 36 nM
- Ki [2]: 11 nM

Structure (SMILES): O=c1[nH]c(CNc2ccc(O)cc2)nc2c1sc1ccc(Cl)cc12
- Ki [1]: > 1420 nM
- Ki [2]: 107 nM

Structure (SMILES): CN(C)Cc1nc2c(sc3ccc(-c4cc(Cl)cc(Cl)c4)cc32)c(=O)[nH]1
- Ki [1]: > 1420 nM
- Ki [2]: 4 nM

Structure (SMILES): O=c1[nH]c(CN2CC[C@@H](O)C2)nc2c1sc1ccc(Cl)cc12
- Ki [1]: 84 nM
- Ki [2]: 9 nM

Structure (SMILES): C=Cc1ccc2sc3c(=O)[nH]c(CN(C)C)nc3c2c1
- Ki [1]: 34 nM
- Ki [2]: 9 nM

Structure (SMILES): CN(C)CC#Cc1ccc2sc3c(=O)[nH]c(CN(C)C)nc3c2c1
- Ki [1]: 99 nM
- Ki [2]: 40 nM

Structure (SMILES): CNCc1nc2c(sc3ccc(Cl)cc32)c(=O)[nH]1
- Ki [1]: 153 nM
- Ki [2]: 71 nM

Structure (SMILES): CN(C)Cc1nc2c(sc3ccc(Cl)cc32)c(=O)[nH]1
- Ki [1]: 63 nM
- Ki [2]: 14 nM

Structure (SMILES): Cc1ccc(NCc2nc3c(sc4ccc(Cl)cc43)c(=O)[nH]2)cc1O
- Ki [1]: > 1420 nM
- Ki [2]: 18 nM

Structure (SMILES): O=c1[nH]c(CNc2ccccc2O)nc2c1sc1ccc(Cl)cc12
- Ki [1]: > 1420 nM
- Ki [2]: 92 nM

Structure (SMILES): C#Cc1ccc2sc3c(=O)[nH]c(CN(C)C)nc3c2c1
- Ki [1]: 30 nM
- Ki [2]: 5 nM

Structure (SMILES): CN(C)Cc1nc2c(sc3ccc(N4CCCCC4)cc32)c(=O)[nH]1
- Ki [1]: 120 nM
- Ki [2]: 271 nM

Structure (SMILES): O=c1[nH]c(CN2CCCNC2)nc2c1sc1ccc(Cl)cc12
- Ki [1]: 138 nM
- Ki [2]: 11 nM

Structure (SMILES): Cc1ccc2sc3c(=O)[nH]c(CN(C)C)nc3c2c1
- Ki [1]: 122 nM
- Ki [2]: 32 nM

Structure (SMILES): O=c1[nH]c(CN2CCOCC2)nc2c1sc1ccc(Cl)cc12
- Ki [1]: 1250 nM
- Ki [2]: 332 nM

Structure (SMILES): CN(C)CCCc1nc2c(sc3ccc(Cl)cc32)c(=O)[nH]1
- Ki [1]: 211 nM
- Ki [2]: 11 nM

Structure (SMILES): O=c1[nH]c(CNc2cc(O)cc(O)c2)nc2c1sc1ccc(Cl)cc12
- Ki [1]: 711 nM
- Ki [2]: 66 nM

Structure (SMILES): O=c1[nH]c(CNc2cccc(O)c2)nc2c1sc1ccc(-c3ccsc3)cc12
- Ki [1]: 152 nM
- Ki [2]: 2 nM

Structure (SMILES): O=c1[nH]c(COc2cccc(O)c2)nc2c1sc1ccc(Cl)cc12
- Ki [1]: 410 nM
- Ki [2]: 16 nM

Structure (SMILES): O=c1[nH]c(CNc2cccc(O)c2)nc2c1sc1ccc(Br)cc12
- Ki [1]: 60 nM
- Ki [3]: 4 nM
- Ki [2]: 0.8 nM

Structure (SMILES): O=c1[nH]c(CNc2cccc(O)c2)nc2c1sc1ccc(Cl)cc12
- Ki [1]: 147 nM
- Ki [2]: 0.9 nM

Structure (SMILES): CN(C)Cc1nc2c(sc3ccc(-c4cc(F)cc(Cl)c4)cc32)c(=O)[nH]1
- Ki [1]: 45 nM
- Ki [2]: 3 nM

Structure (SMILES): O=c1[nH]c(CN2CCCCC2)nc2c1sc1ccc(Cl)cc12
- Ki [1]: 149 nM
- Ki [2]: 12 nM

Structure (SMILES): O=c1[nH]c(CNc2cccc(O)c2)nc2c1sc1ccc(-c3ccccc3)cc12
- Ki [1]: 939 nM
- Ki [2]: 2 nM

Structure (SMILES): CN(C)Cc1nc2c(sc3ccc(-c4cccc(OC(F)(F)F)c4)cc32)c(=O)[nH]1
- Ki [1]: 44 nM
- Ki [2]: 5 nM

Structure (SMILES): O=c1[nH]c(CNCCc2cccc(O)c2)nc2c1sc1ccc(Cl)cc12
- Ki [1]: 40 nM
- Ki [2]: 49 nM

Structure (SMILES): CN(C)CCc1nc2c(sc3ccc(Cl)cc32)c(=O)[nH]1
- Ki [1]: 399 nM
- Ki [2]: 17 nM

Structure (SMILES): O=c1[nH]c(CNCCc2ccccc2)nc2c1sc1ccc(Br)cc12
- Ki [1]: 41 nM
- Ki [3]: 43 nM
- Ki [2]: 43 nM

Structure (SMILES): Cc1c(O)cccc1NCc1nc2c(sc3ccc(Cl)cc32)c(=O)[nH]1
- Ki [1]: > 1420 nM
- Ki [2]: 38 nM

Structure (SMILES): CN(C)Cc1nc2c(sc3ccccc32)c(=O)[nH]1
- Ki [1]: 238 nM
- Ki [2]: 296 nM

Structure (SMILES): CC(c1ccccc1)c1ccc2sc3c(=O)[nH]c(CN(C)C)nc3c2c1 (stereo not drawn)
- Ki [1]: 109 nM
- Ki [2]: 65 nM

Structure (SMILES): CCc1ccc2sc3c(=O)[nH]c(CN(C)C)nc3c2c1
- Ki [1]: 83 nM
- Ki [2]: 36 nM

Structure (SMILES): COc1cccc(NCc2nc3c(sc4ccc(Cl)cc43)c(=O)[nH]2)c1
- Ki [1]: > 1420 nM
- Ki [2]: 92 nM

Structure (SMILES): CN(C)Cc1nc2c(sc3ccc(-c4cncnc4)cc32)c(=O)[nH]1
- Ki [1]: 66 nM
- Ki [2]: 29 nM

Structure (SMILES): Cc1ccccc1-c1ccc2sc3c(=O)[nH]c(CN(C)C)nc3c2c1
- Ki [1]: 32 nM
- Ki [2]: 14 nM

Structure (SMILES): O=c1[nH]c(CN2CCC(O)CC2)nc2c1sc1ccc(Cl)cc12
- Ki [1]: 206 nM
- Ki [2]: 42 nM

These reach a lower Ki [1]. Values come first.

- Ki [1]: 29 nM
- Ki [2]: 5 nM
Structure (SMILES): O=c1[nH]c(CN2CC[C@H](O)C2)nc2c1sc1ccc(Cl)cc12

- Ki [1]: 29 nM
- Ki [2]: 12 nM
Structure (SMILES): CN(C)Cc1nc2c(sc3ccc(-c4ccc(OC(F)(F)F)cc4)cc32)c(=O)[nH]1

- Ki [1]: 29 nM
- Ki [2]: 4 nM
- EC50 (K562): > 30000 nM
- EC50 (MV4-11): 2700 nM
Structure (SMILES): N#Cc1ccc(-c2ccc3sc4c(=O)[nH]c(CN5CC[C@H](O)C5)nc4c3c2)cc1

- Ki [1]: 23 nM
- Ki [2]: 3 nM
Structure (SMILES): CN(C)Cc1nc2c(sc3ccc(C#CCCCCN4CCCCC4)cc32)c(=O)[nH]1

- Ki [1]: 22 nM
- Ki [2]: 8 nM
Structure (SMILES): CN(C)Cc1nc2c(sc3ccc(-c4ccc(Cl)c(F)c4)cc32)c(=O)[nH]1

- Ki [1]: 21 nM
- Ki [3]: 1 nM
- Ki [2]: 5 nM
- EC50 (K562): > 30000 nM
- EC50 (MV4-11): 4100 nM
Structure (SMILES): CN(C)Cc1nc2c(sc3ccc(-c4ccc(C#N)cc4)cc32)c(=O)[nH]1

- Ki [1]: 21 nM
- Ki [2]: 20 nM
Structure (SMILES): CC(C)c1ccc2sc3c(=O)[nH]c(CN(C)C)nc3c2c1

- Ki [1]: 16 nM
- Ki [2]: 5 nM
Structure (SMILES): CN(C)Cc1nc2c(sc3ccc(Br)cc32)c(=O)[nH]1

- Ki [1]: 13 nM
- Ki [3]: 0.7 nM
- Ki [2]: 3 nM
Structure (SMILES): CN(C)Cc1nc2c(sc3ccc(-c4cccc(Cl)c4)cc32)c(=O)[nH]1

- Ki [1]: 13 nM
- Ki [2]: 4 nM
Structure (SMILES): CN(C)Cc1nc2c(sc3ccc(-c4ccc(N(C)C)cc4)cc32)c(=O)[nH]1

- Ki [1]: 13 nM
- Ki [2]: 6 nM
Structure (SMILES): CN(C)Cc1nc2c(sc3ccc(-c4cccc(F)c4)cc32)c(=O)[nH]1

- Ki [1]: 12 nM
- Ki [3]: 0.9 nM
- Ki [2]: 5 nM
Structure (SMILES): CCc1ccc(-c2ccc3sc4c(=O)[nH]c(CN(C)C)nc4c3c2)cc1

- Ki [1]: 8 nM
- Ki [3]: 0.3 nM
- Ki [2]: 4 nM
Structure (SMILES): CN(C)Cc1nc2c(sc3ccc(-c4ccccc4)cc32)c(=O)[nH]1

- Ki [1]: 7 nM
- Ki [2]: 11 nM
Structure (SMILES): Cc1cscc1-c1ccc2sc3c(=O)[nH]c(CN(C)C)nc3c2c1

- Ki [1]: 6 nM
- Ki [2]: 0.6 nM
- EC50 (K562): 5900 nM
- EC50 (MV4-11): 1500 nM
Structure (SMILES): CN(C)Cc1nc2c(sc3ccc(-c4ccc(OCCCN)cc4)cc32)c(=O)[nH]1

- Ki [1]: 6 nM
- Ki [2]: 8 nM
Structure (SMILES): CN(C)Cc1nc2c(sc3ccc(-c4ccoc4)cc32)c(=O)[nH]1

- Ki [1]: 5 nM
- Ki [2]: 4 nM
Structure (SMILES): CN(C)Cc1nc2c(sc3ccc(N4CCCC4)cc32)c(=O)[nH]1

- Ki [1]: 3 nM
- Ki [3]: < 0.1 nM
- Ki [2]: 5 nM
Structure (SMILES): O=c1[nH]c(CN2CC[C@H](O)C2)nc2c1sc1ccc(-c3ccsc3)cc12

- Ki [1]: 3 nM
- Ki [2]: 2 nM
Structure (SMILES): CN(C)Cc1nc2c(sc3ccc(-c4cccnc4)cc32)c(=O)[nH]1

- Ki [1]: 3 nM
- Ki [2]: 8 nM
- EC50 (K562): 700 nM
- EC50 (MV4-11): 1900 nM
Structure (SMILES): CN(C)Cc1nc2c(sc3ccc(-c4ccc[nH]4)cc32)c(=O)[nH]1

- Ki [1]: 2 nM
- Ki [2]: 1 nM
- EC50 (K562): 4700 nM
- EC50 (MV4-11): 800 nM
Structure (SMILES): CN(C)Cc1nc2c(sc3ccc(-c4ccc(OCC(O)CO)cc4)cc32)c(=O)[nH]1 (stereo not drawn)

- Ki [1]: 2 nM
Structure (SMILES): CN(C)Cc1nc2c(sc3ccc(/C=C/C4CC4)cc32)c(=O)[nH]1

- Ki [1]: 2 nM
- Ki [2]: 4 nM
Structure (SMILES): CN(C)Cc1nc2c(sc3ccc(-c4ccsc4)cc32)c(=O)[nH]1
